Experimental data published in PubChem BioAssay AID1745844 (Carcinogenic Potency Database (CPDB), 2022).
Active and inactive are the calls of the source. The rule behind the calls is not given here.

Test system: rodent lifetime carcinogenesis bioassay, tumor incidence TD50
Experiment: chronic cancer bioassays in animals – CPDB, compiled studies (AID 1745844)

## CCOC(N)=O
hamster, strain Syrian Golden, females, in drinking water, site: adrenal gland, lesion: cortical carcinoma, dosed 90 weeks, study length 90 weeks
  TD50: 349 mg/kg/day
hamster, strain Syrian Golden, females, in drinking water, site: adrenal gland, lesion: several types, types named in the paper, dosed 90 weeks, study length 90 weeks
  TD50: 318 mg/kg/day
hamster, strain Syrian Golden, females, in drinking water, site: cecum, lesion: adenomatous polyp, dosed 90 weeks, study length 90 weeks
  TD50: 294 mg/kg/day
hamster, strain Syrian Golden, females, in drinking water, site: dermis, lesion: melanocytoma, dosed 90 weeks, study length 90 weeks
  TD50: 74.4 mg/kg/day
hamster, strain Syrian Golden, females, in drinking water, site: forestomach, lesion: carcinoma, dosed 90 weeks, study length 90 weeks
  TD50: 374 mg/kg/day
hamster, strain Syrian Golden, females, in drinking water, site: forestomach, lesion: papilloma, dosed 55 weeks, study length 55 weeks
  TD50: 102 mg/kg/day
hamster, strain Syrian Golden, females, in drinking water, site: forestomach, lesion: papilloma, dosed 90 weeks, study length 90 weeks
  TD50: 44.5 mg/kg/day
hamster, strain Syrian Golden, females, in drinking water, site: gall bladder, lesion: papilloma, dosed 90 weeks, study length 90 weeks
  TD50: 682 mg/kg/day
hamster, strain Syrian Golden, females, in drinking water, site: lung, lesion: adenoma, dosed 90 weeks, study length 90 weeks
  TD50: 1360 mg/kg/day
hamster, strain Syrian Golden, females, in drinking water, site: ovary, lesion: carcinoma, dosed 90 weeks, study length 90 weeks
  TD50: 682 mg/kg/day
hamster, strain Syrian Golden, females, in drinking water, site: skin, lesion: melanotic tumor, dosed 55 weeks, study length 55 weeks
  TD50: 496 mg/kg/day
hamster, strain Syrian Golden, females, in drinking water, site: thyroid gland, lesion: several types, types named in the paper, dosed 90 weeks, study length 90 weeks
  TD50: 538 mg/kg/day
hamster, strain Syrian Golden, females, in drinking water, site: vagina, lesion: carcinoma, dosed 90 weeks, study length 90 weeks
  TD50: 314 mg/kg/day
hamster, strain Syrian Golden, males, in drinking water, site: adrenal gland, lesion: cortical adenoma, dosed 103 weeks, study length 103 weeks
  TD50: 564 mg/kg/day
hamster, strain Syrian Golden, males, in drinking water, site: cecum, lesion: adenomatous polyp, dosed 103 weeks, study length 103 weeks
  TD50: 765 mg/kg/day
hamster, strain Syrian Golden, males, in drinking water, site: dermis, lesion: melanocytoma, dosed 103 weeks, study length 103 weeks
  TD50: 109 mg/kg/day
hamster, strain Syrian Golden, males, in drinking water, site: forestomach, lesion: carcinoma, dosed 103 weeks, study length 103 weeks
  TD50: 135 mg/kg/day
hamster, strain Syrian Golden, males, in drinking water, site: forestomach, lesion: papilloma, dosed 76 weeks, study length 76 weeks
  TD50: 95.8 mg/kg/day
hamster, strain Syrian Golden, males, in drinking water, site: forestomach, lesion: papilloma, dosed 103 weeks, study length 103 weeks
  TD50: 64.2 mg/kg/day
hamster, strain Syrian Golden, males, in drinking water, site: liver, lesion: several types, types named in the paper, dosed 103 weeks, study length 103 weeks
  TD50: 1280 mg/kg/day
hamster, strain Syrian Golden, males, in drinking water, site: lung, lesion: adenoma, dosed 103 weeks, study length 103 weeks
  TD50: 927 mg/kg/day
hamster, strain Syrian Golden, males, in drinking water, site: skin, lesion: melanotic tumor, dosed 76 weeks, study length 76 weeks
  TD50: 74.2 mg/kg/day
monkey, strain Cynomolgus [Macaca fascicularis], both sexes, in feed, site: any site (literature study), lesion: benign tumor, dosed 258 weeks, study length 1208 weeks
  TD50: 128 mg/kg/day
monkey, strain Cynomolgus [Macaca fascicularis], both sexes, in feed, site: any site (literature study), lesion: malignant tumor, dosed 258 weeks, study length 1208 weeks
  TD50: 21.5 mg/kg/day
monkey, strain Cynomolgus [Macaca fascicularis], both sexes, in feed, site: any site (literature study), lesion: several types, types named in the paper, dosed 258 weeks, study length 1208 weeks
  TD50: 25.5 mg/kg/day
monkey, strain Cynomolgus [Macaca fascicularis], both sexes, in feed, site: liver, lesion: hemangiosarcoma, dosed 258 weeks, study length 1208 weeks
  TD50: 95 mg/kg/day
monkey, strain Cynomolgus [Macaca fascicularis], both sexes, in feed, site: liver, lesion: hepatocellular adenoma, dosed 258 weeks, study length 1208 weeks
  TD50: 31.7 mg/kg/day
monkey, strain Cynomolgus [Macaca fascicularis], both sexes, in feed, site: lung, lesion: bronchogenic carcinoma, dosed 258 weeks, study length 1208 weeks
  TD50: 31.7 mg/kg/day
monkey, strain Cynomolgus [Macaca fascicularis], both sexes, in feed, site: pancreas, lesion: adenocarcinoma, dosed 258 weeks, study length 1208 weeks
  TD50: 52.8 mg/kg/day
monkey, strain Cynomolgus [Macaca fascicularis], both sexes, in feed, site: several sites, pooled by Berkeley, lesion: several types, pooled by Berkeley, dosed 258 weeks, study length 1208 weeks
  TD50: 16.4 mg/kg/day
monkey, strain Rhesus [Macaca mulatta], both sexes, in feed, site: adrenal gland, lesion: pheochromocytoma, dosed 258 weeks, study length 1281 weeks
  TD50: 117 mg/kg/day
monkey, strain Rhesus [Macaca mulatta], both sexes, in feed, site: any site (literature study), lesion: benign tumor, dosed 258 weeks, study length 1281 weeks
  TD50: 75.9 mg/kg/day
monkey, strain Rhesus [Macaca mulatta], both sexes, in feed, site: any site (literature study), lesion: malignant tumor, dosed 258 weeks, study length 1281 weeks
  TD50: 52.9 mg/kg/day
monkey, strain Rhesus [Macaca mulatta], both sexes, in feed, site: any site (literature study), lesion: several types, types named in the paper, dosed 258 weeks, study length 1281 weeks
  TD50: 26.3 mg/kg/day
monkey, strain Rhesus [Macaca mulatta], both sexes, in feed, site: cheek pouch, lesion: squamous-cell papilloma, dosed 258 weeks, study length 1281 weeks
  TD50: 75.5 mg/kg/day
monkey, strain Rhesus [Macaca mulatta], both sexes, in feed, site: jejunum, lesion: adenocarcinoma, dosed 258 weeks, study length 1281 weeks
  TD50: 65.2 mg/kg/day
monkey, strain Rhesus [Macaca mulatta], both sexes, in feed, site: liver, lesion: hemangiosarcoma, dosed 258 weeks, study length 1281 weeks
  TD50: 143 mg/kg/day
monkey, strain Rhesus [Macaca mulatta], both sexes, in feed, site: liver, lesion: hepatocellular carcinoma, dosed 258 weeks, study length 1281 weeks
  TD50: 143 mg/kg/day
monkey, strain Rhesus [Macaca mulatta], both sexes, in feed, site: several sites, pooled by Berkeley, lesion: several types, pooled by Berkeley, dosed 258 weeks, study length 1281 weeks
  TD50: 44.8 mg/kg/day
mouse, strain B6AKF1, females, oral dosing, site: Harderian gland, lesion: adenoma, dosed 73 weeks, study length 73 weeks
  TD50: 59.7 mg/kg/day
mouse, strain B6AKF1, females, oral dosing, site: all sites, lesion: angioma, dosed 73 weeks, study length 73 weeks
  TD50: 31.7 mg/kg/day
mouse, strain B6AKF1, females, oral dosing, site: any site (literature study), lesion: several types, types named in the paper, dosed 73 weeks, study length 73 weeks
  TD50: 9.73 mg/kg/day
mouse, strain B6AKF1, females, oral dosing, site: liver, lesion: hepatoma, dosed 73 weeks, study length 73 weeks
  TD50: 89.9 mg/kg/day
mouse, strain B6AKF1, females, oral dosing, site: lung, lesion: adenoma, dosed 73 weeks, study length 73 weeks
  TD50: 29.3 mg/kg/day
mouse, strain B6AKF1, females, oral dosing, site: lung, lesion: carcinoma, dosed 73 weeks, study length 73 weeks
  TD50: 89.9 mg/kg/day
mouse, strain B6AKF1, females, oral dosing, site: lung, lesion: several types, types named in the paper, dosed 73 weeks, study length 73 weeks
  TD50: 12.5 mg/kg/day
mouse, strain B6AKF1, males, oral dosing, site: Harderian gland, lesion: adenoma, dosed 72 weeks, study length 72 weeks
  TD50: 35.8 mg/kg/day
mouse, strain B6AKF1, males, oral dosing, site: all sites, lesion: reticulum-cell sarcoma, dosed 72 weeks, study length 72 weeks
  TD50: 77.9 mg/kg/day
mouse, strain B6AKF1, males, oral dosing, site: any site (literature study), lesion: several types, types named in the paper, dosed 72 weeks, study length 72 weeks
  TD50: 11.2 mg/kg/day
mouse, strain B6AKF1, males, oral dosing, site: liver, lesion: hepatoma, dosed 72 weeks, study length 72 weeks
  TD50: 39 mg/kg/day
mouse, strain B6AKF1, males, oral dosing, site: liver, lesion: several types, types named in the paper, dosed 72 weeks, study length 72 weeks
  TD50: 26 mg/kg/day
mouse, strain B6AKF1, males, oral dosing, site: lung, lesion: adenoma, dosed 72 weeks, study length 72 weeks
  TD50: 27.8 mg/kg/day
mouse, strain B6AKF1, males, oral dosing, site: lung, lesion: several types, types named in the paper, dosed 72 weeks, study length 72 weeks
  TD50: 24.2 mg/kg/day
mouse, strain B6C3F1, females, oral dosing, site: any site (literature study), lesion: several types, types named in the paper, dosed 68 weeks, study length 68 weeks
  TD50: 13.7 mg/kg/day
mouse, strain B6C3F1, females, oral dosing, site: liver, lesion: hepatoma, dosed 68 weeks, study length 68 weeks
  TD50: 55.9 mg/kg/day
mouse, strain B6C3F1, females, oral dosing, site: liver, lesion: several types, types named in the paper, dosed 68 weeks, study length 68 weeks
  TD50: 32.4 mg/kg/day
mouse, strain B6C3F1, females, oral dosing, site: lung, lesion: adenoma, dosed 68 weeks, study length 68 weeks
  TD50: 97.4 mg/kg/day
mouse, strain B6C3F1, females, oral dosing, site: lung, lesion: several types, types named in the paper, dosed 68 weeks, study length 68 weeks
  TD50: 79 mg/kg/day
mouse, strain B6C3F1, males, in drinking water, site: heart, lesion: hemangiosarcoma, dosed 65 weeks, study length 70 weeks
  TD50: 417 mg/kg/day
mouse, strain B6C3F1, males, in drinking water, site: liver, lesion: hemangioma, dosed 65 weeks, study length 70 weeks
  TD50: 63.3 mg/kg/day
mouse, strain B6C3F1, males, in drinking water, site: liver, lesion: hemangiosarcoma, dosed 65 weeks, study length 70 weeks
  TD50: 122 mg/kg/day
mouse, strain B6C3F1, males, in drinking water, site: liver, lesion: hepatocellular adenoma, dosed 65 weeks, study length 70 weeks
  TD50: 38.2 mg/kg/day
mouse, strain B6C3F1, males, in drinking water, site: lung, lesion: alveolar/bronchiolar adenoma, dosed 65 weeks, study length 70 weeks
  TD50: 5.91 mg/kg/day
mouse, strain B6C3F1, males, in drinking water, site: lung, lesion: alveolar/bronchiolar carcinoma, dosed 65 weeks, study length 70 weeks
  TD50: 242 mg/kg/day
mouse, strain B6C3F1, males, in drinking water, site: lung, lesion: several types, types named in the paper, dosed 65 weeks, study length 70 weeks
  TD50: 5.91 mg/kg/day
mouse, strain B6C3F1, males, oral dosing, site: any site (literature study), lesion: several types, types named in the paper, dosed 70 weeks, study length 70 weeks
  TD50: 22.4 mg/kg/day
mouse, strain B6C3F1, males, oral dosing, site: liver, lesion: hepatoma, dosed 70 weeks, study length 70 weeks
  TD50: 81.7 mg/kg/day
mouse, strain B6C3F1, males, oral dosing, site: liver, lesion: several types, types named in the paper, dosed 70 weeks, study length 70 weeks
  TD50: 46 mg/kg/day
mouse, strain B6C3F1, males, oral dosing, site: lung, lesion: adenoma, dosed 70 weeks, study length 70 weeks
  TD50: 81.7 mg/kg/day
mouse, strain B6C3F1, males, oral dosing, site: lung, lesion: several types, types named in the paper, dosed 70 weeks, study length 70 weeks
  TD50: 65.9 mg/kg/day
mouse, strain CF-1, females, in drinking water, site: any site (literature study), lesion: several types, types named in the paper, dosed 133 weeks, study length 133 weeks
  TD50: 23.3 mg/kg/day
mouse, strain CF-1, females, in drinking water, site: liver, lesion: hepatoma, dosed 133 weeks, study length 133 weeks
  carcinogen call: negative (inactive)
mouse, strain CF-1, females, in drinking water, site: lung, lesion: one or several types, types not named, dosed 133 weeks, study length 133 weeks
  TD50: 23.8 mg/kg/day
mouse, strain CF-1, males, in drinking water, site: any site (literature study), lesion: several types, types named in the paper, dosed 125 weeks, study length 125 weeks
  TD50: 12.1 mg/kg/day
mouse, strain CF-1, males, in drinking water, site: liver, lesion: hepatoma, dosed 125 weeks, study length 125 weeks
  carcinogen call: negative (inactive)
mouse, strain CF-1, males, in drinking water, site: lung, lesion: one or several types, types not named, dosed 125 weeks, study length 125 weeks
  TD50: 13.2 mg/kg/day
mouse, strain NMRI, both sexes, in drinking water, site: any site (literature study), lesion: benign tumor, dosed 101 weeks, study length 104 weeks
  TD50: 0.434 mg/kg/day
mouse, strain NMRI, both sexes, in drinking water, site: any site (literature study), lesion: malignant tumor, dosed 101 weeks, study length 104 weeks
  TD50: 14.7 mg/kg/day
mouse, strain Swiss, both sexes, in feed, site: lung, lesion: adenocarcinoma, dosed 116 weeks, study length 116 weeks
  TD50: 5060 mg/kg/day
mouse, strain Swiss, both sexes, in feed, site: lung, lesion: adenoma, dosed 116 weeks, study length 116 weeks
  TD50: 36.1 mg/kg/day
rat, strain Sprague-Dawley, both sexes, in drinking water, site: any site (literature study), lesion: benign tumor, dosed 97 weeks, study length 104 weeks
  TD50: 91.2 mg/kg/day
rat, strain Sprague-Dawley, both sexes, in drinking water, site: any site (literature study), lesion: malignant tumor, dosed 97 weeks, study length 104 weeks
  TD50: 41.3 mg/kg/day
